# Like-named read-outs stand apart in the source and are kept apart here.
# What was measured:
# in vivo = conditions: mouse, acute
# Helicobacter pylori = assay: MIC (minimum inhibitory concentration) determination using various clinical isolates of H.pylori; assay type: cell-based; conditions: Mueller-Hinton agar with 7% defibrinated horse blood, pH 7.2, 72 hours, 37° C., 5% CO2
# Method: The activity of the compounds of formula I against Helicobacter pylori can be verified e.g. by determination of the MIC (minimum inhibitory concentration) in the following test method using various clinical isolates of H.pylori: Clinical isolates of H.pylori are stored at -70° C. in Brucella broth with 20% glycerol. All isolates are subcultured on fresh blood agar Blood agar base No. 2, Unipath, with 5% defibrinated horse blood) and confirmed as Helicobacter pylori by Gram shin, catalase, oxidase and rapid-urease tests. Initial incubation is carried out microaerobically in a variable-atmosphere incubator (6% O2, 10% CO2, 3% H2, 81% N2) at 37° C. Subcultures and MIC tests are carried out in humidified air with 5% CO2 at 37° C. Test compounds are incorporated into Mueller-Hinton agar (Unipath) with 7% defibrinated horse blood at pH 7.2. After growth for 72 hours on blood agar H.pylori suspensions are made in Brucella broth (Unipath) equivalent to McFarland standard No. 3. This represents 10^8 cfu/ml H.pylori. A multipoint inoculator will deliver 1 μl per spot (approximately 10^5 cfu). The type strain NCTC 11637 is used as a control in each run. […] All tests are carried out in triplicate.
Compound,"LD50 (in vivo; ip, i.p., read-out: LD50 i.p.)","LD50 (in vivo; po, p.o., read-out: LD50 p.o.)",MIC (Helicobacter pylori)
CN(C/C=C/C#CC(C)(C)C)Cc1cccc2ccccc12,790 mg/kg,> 1000 mg/kg,
C(=C\c1ccccc1)/CN1CCCC[C@@H]1c1cccc2ccccc12 [N-[(E)-3-phenyl-2-propenyl-2-piperidinyl],,,0.06 to 4 µg/mL

# Reference: patent US5935998A, “Use of all allylamine derivatives such as terbinafine, in the manufacture of a medicament for the treatment of helicobacter pylori infection or associated diseases” (Novartis AG, priority 1995, dated 1999)
